Source: PubChem BioAssay AID652140 (Sanford-Burnham Center for Chemical Genomics, 2013)
pIC50: −log10 of the molar value. Activity calls are given as the source filed them.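 Rule for the calls: active = compounds whose IC50 against the worm SKN-1 reporter ratio signal is 5 µM or lower; inactive = the rest.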

Test system: C. elegans VP596 gst-4::GFP/RFP ratio, acrylamide, 24 h
Assay: gst-4 reporter suppression by analogs in C. elegans – whole organism, GFP/RFP fluorescence ratio, strain VP596, SKN-1 inhibitor project, SAR follow-up (AID 652140)

| IC50 | pIC50 | Structure (SMILES) |
| --- | --- | --- |
| 6.09 µM (inactive) |  | Fc1ccc(-c2csc(-c3cccnc3)n2)cc1 |
| > 64 µM (inactive) |  | CCOc1cc(CNC2CCCC2)cc(Cl)c1OC |
| 10.3 µM (inactive) |  | CCOc1cc(CNC2CCCC2)ccc1OCc1ccc(F)cc1 |
| 16.7 µM (inactive) |  | CCOc1cc(CNC(C)C)cc(Cl)c1OCc1ccc(F)cc1 |
|  | 5.59 | c1ccc(-c2csc(-c3ccncc3)n2)cc1 |
| 7.17 µM (inactive) |  | CCOc1cc(CNC2CCCC2)cc(Cl)c1OCc1cccc(F)c1 |
|  | 6.08 | COc1cc(CNC2CCCC2)cc(Cl)c1OCc1ccc(F)cc1 |
| 12 µM (inactive) |  | CCOc1cc(CNC2CCCC2)cc(Cl)c1OCc1ccccc1Cl |
|  | 5.82 | Clc1ccc(-c2csc(-c3cccnc3)n2)cc1 |
| 9.66 µM (inactive) |  | CCOc1cc(CNC2CCCCC2)cc(Cl)c1OCc1ccc(F)cc1 |
| 19.6 µM (inactive) |  | c1ccc(-c2csc(-c3cccnc3)n2)cc1 |
|  | 5.38 | Fc1ccc(COc2ccc(CNC3CCCC3)cc2Cl)cc1 |
|  | 6.61 | CCOc1cc(CNC2CCCC2)cc(Cl)c1OCc1ccc(Cl)cc1 |
| 17.7 µM (inactive) |  | Cc1ccc(-c2csc(-c3ccncc3)n2)cc1 |
|  | 5.71 | CCOc1cc(CNC2CC2)cc(Cl)c1OCc1ccc(F)cc1 |
| > 64 µM (inactive) |  | COc1ccc(-c2csc(-c3cccnc3)n2)cc1 |
| > 64 µM (inactive) |  | CCOc1cc(C(=O)NC2CCCC2)cc(Cl)c1OCc1ccc(F)cc1 |
| 30 µM (inactive) |  | Cc1ccc(-c2csc(-c3cccnc3)n2)cc1 |
|  | 6.12 | CCOc1cc(CNC2CCCC2)cc(Cl)c1OCc1ccccc1F |
| 18 µM (inactive) |  | COc1ccc(-c2csc(-c3ccncc3)n2)cc1 |
| > 64 µM (inactive) |  | CCOc1cc(CNc2ccccc2)cc(Cl)c1OCc1ccc(F)cc1 |
|  | 5.98 | CCOc1cc(CNC2CCCC2)cc(Cl)c1OCc1ccc(F)cc1 |
| 17.4 µM (inactive) |  | CCOc1cc(CNCc2ccccc2)cc(Cl)c1OCc1ccc(F)cc1 |
| 25.8 µM (inactive) |  | CCOc1cc(CNC2CCCC2)cc(Cl)c1OCc1ccc(C)cc1 |
| 8.68 µM (inactive) |  | CCOc1cc(CNC2CCC2)cc(Cl)c1OCc1ccc(F)cc1 |
|  | 5.69 | Fc1ccc(-c2csc(-c3ccncc3)n2)cc1 |
|  | 5.96 | Clc1ccc(-c2csc(-c3ccncc3)n2)cc1 |
| > 64 µM (inactive) |  | CCOc1cc(CNC2CCCC2)cc(Cl)c1OCc1ccc(OC)cc1 |
